Values quoted from earlier work, collected in patent publication US7427493B2, “Recombinant genes for polyketide modifying enzymes” (Kosan Biosciences Incorporated, priority 2002, dated 2008).

Tested on: parasites
Conditions: background statement

## CC[C@H]1OC(=O)[C@H](C)[C@@H](O[C@H]2C[C@@](C)(OC)[C@@H](O)[C@H](C)O2)[C@H](C)[C@@H](O[C@@H]2O[C@H](C)C[C@H](N(C)C)[C@H]2O)[C@](C)(O)C[C@@H](C)C(=O)[C@H](C)[C@@H](O)[C@]1(C)O [erythromycin]
  antiparasitic activity: does not have antiparasitic activity
